ChEMBL document CHEMBL1154543, “Facile synthesis and biological evaluation of a cell-permeable probe to detect redox-regulated proteins” (Bioorg Med Chem Lett, 2009)
Activity calls are given as the source filed them. The calls are words filed in the database; no cut-off is given here.

Key:
[1] = Binding affinity to Cdc25A C384S mutant assessed as protein labeling based detection of sulfenic acid modification at 20 uM in presence of 5 mM DTT by Western blot
[2] = molecular target: T1, Peroxiredoxin-1 (Homo sapiens) (UniProt Q06830); experiment: Binding affinity to sulfenic acid modified peroxiredoxin human HeLa cells at 10 mM by Western blot; type: cell-based
T1 sequence (whole entry): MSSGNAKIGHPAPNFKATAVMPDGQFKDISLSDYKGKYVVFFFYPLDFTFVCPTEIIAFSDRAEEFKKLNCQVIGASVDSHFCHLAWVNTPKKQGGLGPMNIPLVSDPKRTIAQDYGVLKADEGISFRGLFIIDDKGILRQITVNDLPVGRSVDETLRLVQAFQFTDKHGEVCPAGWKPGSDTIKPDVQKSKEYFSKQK

[3] = Binding affinity to Cdc25A C384S mutant assessed as protein labeling based detection of sulfenic acid modification at 10 mM by Western blot
[4] = molecular target: Glyceraldehyde-3-phosphate dehydrogenase (Homo sapiens) (UniProt P04406); experiment: Inhibition of DAz1-biotin binding to sulfenic acid modified GAPDH at 250 uM by Western blot
Glyceraldehyde-3-phosphate dehydrogenase (Homo sapiens), sequence (P04406 2-335 limits assumed): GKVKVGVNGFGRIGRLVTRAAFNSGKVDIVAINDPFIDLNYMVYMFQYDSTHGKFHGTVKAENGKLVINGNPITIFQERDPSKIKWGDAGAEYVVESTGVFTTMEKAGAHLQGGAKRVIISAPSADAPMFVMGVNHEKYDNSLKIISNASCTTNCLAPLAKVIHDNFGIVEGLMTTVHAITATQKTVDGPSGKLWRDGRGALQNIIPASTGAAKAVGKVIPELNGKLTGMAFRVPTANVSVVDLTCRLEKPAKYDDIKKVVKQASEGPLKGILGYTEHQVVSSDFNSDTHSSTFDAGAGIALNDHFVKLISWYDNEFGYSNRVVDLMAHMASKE

[5] = system: HeLa; experiment: Binding affinity to sulfenic acid modified actin in human HeLa cells at 10 mM by Western blot; type: cell-based
[6] = molecular target: Glyceraldehyde-3-phosphate dehydrogenase (Homo sapiens) (UniProt P04406); experiment: Binding affinity to sulfenic acid modified GAPDH in human HeLa cells at 10 mM by Western blot; type: cell-based
[7] = system: HeLa; experiment: Toxicity against human HeLa cells after 2 hrs by trypan blue exclusion method; type: cell-based
[8] = molecular target: Glyceraldehyde-3-phosphate dehydrogenase (Homo sapiens) (UniProt P04406); experiment: Binding affinity to sulfenic acid modified GAPDH by Western blot

[N-]=[N+]=NCCCNC(=O)C1CC(=O)CC(=O)C1
Activity [1]: inactive
Activity [2]: Active
Activity [3]: Active
inhibition [4]: 90%
Activity [5]: Active
Activity [6]: Active
Activity [7]: Non-toxic
Activity [8]: Active
